# Data as given in article PMC10250256, “A radiohybrid theranostics ligand labeled with fluorine-18 and lutetium-177 for fibroblast activation protein-targeted imaging and radionuclide therapy” (European Journal of Nuclear Medicine and Molecular Imaging, 2023).
# Values joined by “and” are separate entries in the source; they are usually repeats but may differ in a detail not shown here. Equal values may be shown once. “Also recorded” adds a separate entry of the source. Read-outs that look alike come from different tables or passages of the source.
# What was measured:
# FAP = biological target: T1, FAP (Homo sapiens, UniProt Q12884); assay: competitive FAP binding assay against [^177Lu]Lu-FAPI-04 in HT-1080-FAP cells
# T1 construct: expressed in transfected cells; host or cells: HT-1080 human fibrosarcoma cells (HT-1080-FAP)
# T1 sequence (Q12884 1-760): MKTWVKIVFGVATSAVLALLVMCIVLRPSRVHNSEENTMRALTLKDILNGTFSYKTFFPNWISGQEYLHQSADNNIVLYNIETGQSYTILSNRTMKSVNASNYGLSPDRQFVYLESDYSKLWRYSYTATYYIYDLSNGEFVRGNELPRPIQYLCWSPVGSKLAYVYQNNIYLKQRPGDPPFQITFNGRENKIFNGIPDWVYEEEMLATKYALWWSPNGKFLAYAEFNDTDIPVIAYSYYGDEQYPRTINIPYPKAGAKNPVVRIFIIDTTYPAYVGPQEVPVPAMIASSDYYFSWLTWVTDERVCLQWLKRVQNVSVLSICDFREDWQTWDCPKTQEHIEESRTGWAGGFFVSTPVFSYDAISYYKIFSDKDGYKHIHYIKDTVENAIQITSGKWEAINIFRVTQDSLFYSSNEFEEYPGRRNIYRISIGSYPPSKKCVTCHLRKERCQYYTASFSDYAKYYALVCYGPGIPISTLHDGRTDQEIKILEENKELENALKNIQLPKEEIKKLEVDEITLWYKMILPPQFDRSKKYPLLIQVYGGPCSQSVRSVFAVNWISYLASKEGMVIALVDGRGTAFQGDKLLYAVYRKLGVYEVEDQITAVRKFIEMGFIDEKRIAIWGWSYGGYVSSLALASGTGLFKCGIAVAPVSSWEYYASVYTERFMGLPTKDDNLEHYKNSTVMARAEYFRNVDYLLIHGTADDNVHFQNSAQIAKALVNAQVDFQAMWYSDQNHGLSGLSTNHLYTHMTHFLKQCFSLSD
# HT-1080-FAP tumor slide = biological target: T2, HT-1080-FAP tumor slide (Homo sapiens, UniProt Q12884); assay: in vitro autoradiography of HT-1080-FAP tumor slides; conditions: unlabeled 20 at 130 μM
# T2 construct: from tissue; host or cells: slides of HT-1080-FAP xenograft tumor (transfected human fibrosarcoma cells grown subcutaneously in BALB/C-nu/nu mice)
# T2 sequence (Q12884 1-760): T1 sequence (Q12884 1-760)
# Protocol: The slides of HT-1080-FAP tumor were incubated with [^18F]21 for 1 h, exposed on a phosphoscreen, and subsequently scanned on a Beckman Coulter FLA7000IP Typhoon storage phosphorimager. Immunohistochemical staining of FAP was performed on the adjacent section.
# HT-1080-FAP xenograft = assay: micro-PET/CT imaging, HT-1080-FAP xenograft; format: in vivo, BALB/C-nu/nu mice
# Protocol: (§1) All animal experiments were conducted in compliance with a protocol approved by the First Affiliated Hospital of Sun Yat-sen University Institutional Animal Care and Use Committee. BALB/C-nu/nu mice (4–5-week old with body weight of 16–22 g) were purchased from GemPharmatech Co., Ltd. Mice were housed under standard conditions with temperature and light control (12-h-light/12-h-dark cycle) and had free access to water and food. For the tumor model, HT-1080-FAP or HT-1080 cells (5 × 10^6) were subcutaneously injected into the right or left flank of nude mice, respectively. As the tumor diameter reached 3–4 mm, mice were treated with radioligands. Micro-PET and SPECT imaging studies, as well as biodistribution, were conducted when the tumor diameter reached 5–10 mm.
# (§2) The dynamic micro-PET/CT (Siemens Inveon) imaging studies were conducted to evaluate the pharmacokinetics. The HT-1080-FAP and HT-1080 tumor-bearing mice were injected with 3.7–7.4 MBq of [^18F]21 or [^68 Ga]Ga-FAPI-04 via tail vein. […] Dynamic PET scans were performed from 0 to 120 min with image reconstruction of every 5 min. Micro-PET imaging was reconstructed using a three-dimensional ordered-subset expectation maximum (OSEM) algorithm (Siemens, Erlangen, Germany). The images and regions of interest (ROIs) were produced using Inveon Research Workplace (Siemens, Erlangen, Germany).
# HT-1080-FAP cells [1] = assay: cell uptake in HT-1080-FAP cells; format: cell-based, human
# Protocol: (§3) The human fibrosarcoma cell lines HT-1080 and HT-1080-FAP transferred with human FAP gene were both cultured in Dulbecco modified Eagle medium supplemented with 10% fetal bovine serum (Gibco, USA) at 37℃/5% carbon dioxide. For cell uptake experiments, HT-1080-FAP cells (~ 1 × 10^5/well) or HT-1080 (~ 1 × 10^5/well) were seeded in 24-well plates for 24–48 h and incubated at 37℃ with radiolabeled compounds (74 kBq/well) in 0.5 mL of serum-free medium for indicated times. Non-specific binding was determined by co-incubating with 100 μM FAP inhibitor UAMC1110. For competitive FAP binding assays, HT-1080-FAP cells were incubated with [^177Lu]Lu-FAPI-04 (74 kBq/well) in the presence of different concentrations (10^−3–10^4 nM) of competing non-radioactive ligands. For internalization experiments, the radiotracer-incubated cells were washed twice with PBS (pH 7.4), followed by glycine–HCl (0,05 M, pH = 2.8) solution to distinguish between cell surface–bound (acid-releasable) and internalized (acid-resistant) radioligand. For efflux experiments, cells were preincubated with [^177Lu]21 or [^177Lu]Lu-FAPI-04 for 1 h and subsequently incubated at 37 °C in a medium free of radiotracer and serum for different time periods. The medium was removed and the cells were washed twice with cold PBS (pH 7.4) and subsequently lysed with 0.5 mL of NaOH (1 M). Cell lysates were collected and the radioactivity was determined using a γ-counter.
# HT-1080 xenograft = assay: micro-PET/CT imaging, FAP-negative HT-1080 xenograft; format: in vivo, BALB/C-nu/nu mice; conditions: dynamic PET 0-120 min
# Protocol: as §1, §2
# [2] = in vivo stability in ICR mice, blood samples (radio-HPLC)
# Protocol: (§4) [^18F]21 or [^177Lu]21 (50 μCi, 10 μL) was added to PBS (90 μL) or murine serum (90 μL) and the mixture was incubated at 37 °C for a certain time ([^18F]21: 2 h, [^177Lu]21: 8 d). The PBS mixture was injected directly into the radio-HPLC for analysis. The murine serum was precipitated with 0.1 mL of acetonitrile and centrifuged (10,000 rpm, 5 min). The supernatant was measured and analyzed by the radio-HPLC to determine the stability. For in vivo stability study, the radio tracers were injected into the tail vein of ICR mice and samples of blood were collected after a certain time post injection (pi) ([^18F]21: 4 h, [^177Lu]21: 9 h). The plasma proteins were precipitated using an equal volume of acetonitrile and centrifuged (10,000 rpm, 5 min). The RCP of radio tracer in supernatants were analyzed and quantified by radio-HPLC. The radio-HPLC method was as follows: A: 0.1% TFA in H2O, B: ACN, 0–10 min, 0–100% B. The flow rate was 1 mL/min, and the C18 column (4.6 × 150 mm, 5 μm, ZORBAX, Agilent) was used. When using HPLC to assess the stability of [^177Lu]21, the effluent was collected every 30 s due to its less radioactivity, and samples were measured by an automatic γ-counter (2480 Wizard2, Perkin Elmer). The counted samples were plotted as intensity (cpm) against fraction.
# HT-1080-FAP cells [3] = assay: internalization experiments in HT-1080-FAP cells; format: cell-based, human; conditions: 10 min
# Protocol: as §3, with “The medium was removed and the cells were washed twice with cold PBS (pH 7.4) and subsequently lysed with 0.5 mL of NaOH (1 M).” left out
# [4] = in vitro stability in PBS or murine serum (radio-HPLC); format: in vitro ADME
# Protocol: as §4
# HT-1080 cells = assay: cell uptake in HT-1080 (FAP negative) cells; format: cell-based, human
# Protocol: as §3, with “The medium was removed and the cells were washed twice with cold PBS (pH 7.4) and subsequently lysed with 0.5 mL of NaOH (1 M).” left out
# [5] = 60 min pi, FAPI-04 25 μg/animal co-injected
compound,measurement,setting,value
CC(C)(C)[Si](F)(c1ccc(C(=O)NC[C@H](NC(=O)CCC(C(=O)O)N2CCN(CC(=O)O)CCN(CC(=O)O)CCN(CC(=O)O)CC2)C(=O)NC[C@H]2CC[C@H](C(=O)NCCCOc3ccc4nccc(C(=O)NCC(=O)N5CC(F)(F)C[C@H]5C#N)c4c3)CC2)cc1)C(C)(C)C (stereo partly drawn) [Compound 20],IC50,FAP,2.29 ± 1.12 nM
same,blocking of [^18F]21 autoradiography signal,HT-1080-FAP tumor slide,could be blocked by unlabeled 20
CC(C)(C)[Si](F)(c1ccc(C(=O)NCC(NC(=O)CCC(C(=O)O)N2CCN(CC(=O)[O-])CCN(CC(=O)[O-])CCN(CC(=O)[O-])CC2)C(=O)NCC2CCC(C(=O)NCCCOc3ccc4nccc(C(=O)NCC(=O)N5CC(F)(F)CC5C#N)c4c3)CC2)cc1)C(C)(C)C.[Lu+3] (stereo not drawn) [Compound 21],IC50,"FAP; HT-1080-FAP cells, competition with [^177Lu]Lu-FAPI-04, read-out: IC50 (binding affinity towards FAP)",2.53 ± 1.87 nM
CC(C)(C)[Si]([18F])(c1ccc(C(=O)NCC(NC(=O)CCC(C(=O)O)N2CCN(CC(=O)[O-])CCN(CC(=O)[O-])CCN(CC(=O)[O-])CC2)C(=O)NCC2CCC(C(=O)NCCCOc3ccc4nccc(C(=O)NCC(=O)N5CC(F)(F)CC5C#N)c4c3)CC2)cc1)C(C)(C)C.[Lu+3] (stereo not drawn) [[^18F]21],"tumor uptake (PET ROI), without competitor",HT-1080-FAP xenograft; 60 min pi,14.13 ± 3.19 %ID/g
same,"tumor uptake (PET ROI), blocking with FAPI-04",HT-1080-FAP xenograft; [5],3.8 ± 0.89 %ID/g
same,"uptake in joints, blocking with FAPI-04",HT-1080-FAP xenograft; [5],blocked significantly
same,fold higher tumor uptake than [^68 Ga]Ga-FAPI-04,HT-1080-FAP xenograft; 2 h pi,14.9 fold
same,HT-1080-FAP tumor uptake (PET),"HT-1080-FAP xenograft; 2 h pi, dynamic PET",10.04 %ID/g
same,cell uptake,HT-1080-FAP cells [1]; 10 min incubation,60.18% ± 3.84
same,cell uptake,HT-1080-FAP cells [1]; 1 h incubation,86.43% ± 5.47 and 86.43% ± 5.46
same,cell uptake with competitor,HT-1080-FAP cells [1]; co-incubation with 100 μM FAP inhibitor UAMC1110,could be blocked by FAP inhibitor; also recorded: could be blocked by UAMC1110
same,FAP-negative HT-1080 tumor uptake (PET),HT-1080 xenograft,did not show any uptakes
same,metabolization in blood samples (radio-HPLC),"[2]; ICR mice, within 4 h pi",little evidence of any metabolization
same,in vivo stability,[2]; as summarised in discussion,> 90%
same,internalization rate,HT-1080-FAP cells [3],> 80%
same,time stable in vitro,"[4]; 37 °C, PBS or murine serum",at least 2 h
same,in vitro stability,[4]; as summarised in discussion,> 90%
same,cell uptake in FAP negative cells,HT-1080 cells,Almost no uptakes
